Reference: ChEMBL document CHEMBL1212896, “Discovery of novel cyanodihydropyridines as potent mineralocorticoid receptor antagonists” (J Med Chem, 2010)
Active and inactive are the calls of the source. No cut-off for these calls is given here.

Key:
Progesterone receptor = target: T1, Progesterone receptor (Homo sapiens, UniProt P06401); experiment: Antagonist activity at progesterone receptor LBD expressed in human HUH7 cells coexpressing GAL4 by luciferase reporter gene assay; assay type: functional, cell-based, Huh-7
T1 sequence (P06401 whole entry): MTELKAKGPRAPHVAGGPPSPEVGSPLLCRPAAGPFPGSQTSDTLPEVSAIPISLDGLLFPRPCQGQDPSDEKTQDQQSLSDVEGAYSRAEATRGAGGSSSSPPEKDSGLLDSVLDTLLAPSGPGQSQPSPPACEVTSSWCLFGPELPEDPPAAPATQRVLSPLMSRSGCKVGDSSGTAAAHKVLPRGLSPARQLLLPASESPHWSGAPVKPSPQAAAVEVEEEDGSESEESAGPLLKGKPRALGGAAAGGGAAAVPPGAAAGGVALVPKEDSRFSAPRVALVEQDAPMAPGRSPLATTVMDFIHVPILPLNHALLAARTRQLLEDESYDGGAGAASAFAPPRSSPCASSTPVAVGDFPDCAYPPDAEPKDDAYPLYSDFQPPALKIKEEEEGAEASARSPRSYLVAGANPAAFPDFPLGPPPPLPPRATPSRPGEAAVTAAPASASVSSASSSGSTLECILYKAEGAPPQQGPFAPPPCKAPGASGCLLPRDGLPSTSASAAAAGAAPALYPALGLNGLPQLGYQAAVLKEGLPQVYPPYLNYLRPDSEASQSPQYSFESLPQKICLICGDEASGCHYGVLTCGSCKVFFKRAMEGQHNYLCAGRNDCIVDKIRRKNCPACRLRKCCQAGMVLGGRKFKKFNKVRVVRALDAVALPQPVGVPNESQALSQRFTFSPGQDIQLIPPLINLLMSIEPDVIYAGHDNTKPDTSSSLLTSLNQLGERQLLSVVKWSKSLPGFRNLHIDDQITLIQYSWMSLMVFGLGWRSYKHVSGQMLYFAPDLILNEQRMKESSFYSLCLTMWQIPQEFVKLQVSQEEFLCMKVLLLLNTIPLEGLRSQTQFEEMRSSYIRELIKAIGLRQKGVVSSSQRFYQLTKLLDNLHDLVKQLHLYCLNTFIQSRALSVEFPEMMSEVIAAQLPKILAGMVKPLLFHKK

[1] = Clearance in Sprague-Dawley rat at 5 mg/kg, iv; assay type: ADME, organism-based; set-up: dose 5 mg/kg, route intravenous; details: in vivo
[2] = Half life in Sprague-Dawley rat at 5 mg/kg, iv; assay type: ADME, organism-based; set-up: dose 5 mg/kg, route intravenous; details: in vivo
[3] = Volume of distribution at steady state in Sprague-Dawley rat at 5 mg/kg, iv; assay type: ADME, organism-based; set-up: dose 5 mg/kg, route intravenous; details: in vivo, read-out: Vdss
Rattus norvegicus [4] = experiment: Antihypertensive activity in Dahl salt-sensitive rat model assessed as decrease of systolic blood pressure at 60 mg/kg, po bid for 21 days; assay type: functional, organism-based; set-up: dose 60 mg/kg; details: Artery
Rattus norvegicus [5] = experiment: Protection of renal injury in Dahl salt-sensitive rat model assessed as reduction of urinal albumin excretion at 60 mg/kg, po bid for 21 days; assay type: functional, organism-based; set-up: dose 60 mg/kg

| IC50 (Progesterone receptor) [µM] | SMILES | also measured |
| --- | --- | --- |
| > 10 | COC(=O)C1=C(Cn2cnnn2)NC(C)=C(C#N)C1c1ccc(F)cc1Cl (stereo not given) | clearance [1]: 14.1 mL/min/kg; half-life [2]: 290 min; Vd [3]: 0.9 L/kg; Activity (Rattus norvegicus [4]): Active; Activity (Rattus norvegicus [5]): Active |
| 0.9 | COC(=O)C1=C(C)NC(C)=C(C#N)C1c1ccc(F)cc1Cl (stereo not given) |  |

Second part, the molecule before the results:

| SMILES | IC50 (Progesterone receptor) [µM] | also measured |
| --- | --- | --- |
| CCCC1=C(C(=O)OC)C(c2ccccc2Cl)C(C#N)=C(C)N1 (stereo not given) | 0.2 |  |
| COC(=O)C1=C(Cn2cncn2)NC(C)=C(C#N)C1c1ccc(F)cc1Cl (stereo not given) | 7 |  |
| COC(=O)C1=C(Cn2ccnc2)NC(C)=C(C#N)C1c1ccc(F)cc1Cl (stereo not given) | > 10 |  |
